We go through eight molecules from patent publication US20170042148A1, “USE OF A DICARBOXYLIC ACID TO CONTROL THE GROWTH OF HOLOPARASITIC OR HEMIPARASITIC PLANTS” (UNIVERSITE CLAUDE BERNARD LYON I, priority 2014, published 2017).

In assay [1] the test system is Striga hermontica. The assay is described as follows: Herbicidal effect on Striga hermontica growth in a microtiter plate (procaulome length). It counts as in vivo. The following applies: for Striga inhibition: 2 mg/mL of buffer, procaulome size after 3 days at 30° C. with GR24. As for the experimental part:
The activity of the diacids on the parasitic plants Striga and Orobanche was tested by preparing solutions of the selected diacid in water or in phosphate buffer (50 mM, pH 7) at concentrations of 1 to 20 mg/mL.
1. In a 12-well microtiter plate, filter papers (Whatman 3) are placed at the bottom of the wells and moistened with sterile water. About 30 sterilized seeds (rinsed with 70% ethanol, then 1% (w/v) Ca(ClO)2 and Tween® 20, then thoroughly with water) of the holo- or hemiparasitic plants are placed, in each well, on the surface of the filter papers. After 10 days of incubation at 30° C. and in the dark, increasing amounts of a diacid or of culture supernatant are added, in the presence of a germination stimulant, GR24. After 3 days of incubation at 30° C., the development of the parasitic plants in the presence of a diacid or of culture supernatant is compared to the negative control (water, phosphate buffer or sterile culture medium), with a macroscope coupled to a camera. The length of the procaulomes (radicles) of the holo- or hemiparasitic plants is measured in order to express the phytotoxic capacity of the tested products.

Assay [2] concerns Striga hermontica. The assay is described as follows: Emergence of Striga seedlings in soil mesocosms with sorghum. In kind it is in vivo. The following applies: soil mesocosm with sorghum, after 2 months. As for the experimental part:
2. Striga hermontica seeds (about 100 seeds/pot) and sorghum seeds (1 seed/pot) were introduced simultaneously into soil mesocosms, in the presence of increasing amounts of malic acid (2 and 20 g/L) or of culture supernatant, then grown in a greenhouse or a plot. The emergence of Striga seedlings is estimated visually, after 2 months of incubation. Phytotoxic capacity is estimated by comparison with a control without added malic acid or culture supernatant. A decrease of 22% in the number of Striga seedlings having emerged, compared to the control condition, is observed in the presence of 2 g/L malic acid and of 90% in the presence of 20 g/L malic acid. In the presence of the bacterial supernatant, a decrease of 58% in the number of Striga compared to the control condition was observed.

Each structure is given as a SMILES string.

As for `O=C(O)C#CC(=O)O` [Acetylene dicarboxylic acid], the Striga inhibition result in the assay with Striga hermontica [1] is “++ (strong inhibition (procaulome size < 0.2 mm))”.

With `O=C(O)/C=C\C(=O)O` [Maleic acid], in the assay with Striga hermontica [1], the Striga inhibition entry is “++ (strong inhibition (procaulome size < 0.2 mm))”.

Consider `O=C(O)C[C@H](O)C(=O)O` [L-Malic acid], for which the Striga inhibition entry in the assay with Striga hermontica [1] is recorded as “++ (strong inhibition (procaulome size < 0.2 mm))”. For the same molecule, the “effect on procaulome growth (FIG. 1)” value with Striga hermontica [1] (supernatant of strain grown in Nfb*, L-malic acid 2 mg/mL in phosphate buffer) is recorded as “inhibitory effect”.

Consider `O=C(O)CC(O)C(=O)O` (racemic) [DL-Malic acid], for which the Striga inhibition result with Striga hermontica [1] was “+ (weak inhibition (procaulome size between 0.2 and 0.8 mm))”.

As for `O=C(O)C(=O)O` [Oxalic acid], in the assay with Striga hermontica [1], the Striga inhibition result was “++ (strong inhibition (procaulome size < 0.2 mm))”.

As for `O=C(O)CC(=O)O` [Malonic acid], in the assay with Striga hermontica [1], the Striga inhibition result is “++ (strong inhibition (procaulome size < 0.2 mm))”.

Turning to `O=C(O)CC(O)C(=O)O` (stereo not shown) [malic acid], the “decrease in the number of Striga seedlings having emerged, compared to the control condition” value is on record as 22% in the assay with Striga hermontica [2] (2 g/L malic acid) and 90% in the assay with Striga hermontica [2] (20 g/L malic acid).

On to `O=C(O)CCCC(=O)O` [Glutaric acid], for which the Striga inhibition entry with Striga hermontica [1] is on record as “++ (strong inhibition (procaulome size < 0.2 mm))”.
